Source: patent US8952034B2, “Fused heterocyclic compounds as ion channel modulators” (Gilead Sciences, Inc., priority 2009, dated 2015)

The molecules below were run against wild-type human cardiac sodium channel, hNav1.5 (Homo sapiens, UniProt Q14524) (assay: Late INa screening assay (automated whole cell patch clamp, PatchXpress)). Details: compound at 1 μM; HEK293 cells expressing hNav1.5; late INa generated with 10 μM Tefluthrin (or 50 nM ATX II); read-out: LateINa_1 uM (percent block of late INa).
Chain of wild-type human cardiac sodium channel, hNav1.5 (Q14524 whole entry): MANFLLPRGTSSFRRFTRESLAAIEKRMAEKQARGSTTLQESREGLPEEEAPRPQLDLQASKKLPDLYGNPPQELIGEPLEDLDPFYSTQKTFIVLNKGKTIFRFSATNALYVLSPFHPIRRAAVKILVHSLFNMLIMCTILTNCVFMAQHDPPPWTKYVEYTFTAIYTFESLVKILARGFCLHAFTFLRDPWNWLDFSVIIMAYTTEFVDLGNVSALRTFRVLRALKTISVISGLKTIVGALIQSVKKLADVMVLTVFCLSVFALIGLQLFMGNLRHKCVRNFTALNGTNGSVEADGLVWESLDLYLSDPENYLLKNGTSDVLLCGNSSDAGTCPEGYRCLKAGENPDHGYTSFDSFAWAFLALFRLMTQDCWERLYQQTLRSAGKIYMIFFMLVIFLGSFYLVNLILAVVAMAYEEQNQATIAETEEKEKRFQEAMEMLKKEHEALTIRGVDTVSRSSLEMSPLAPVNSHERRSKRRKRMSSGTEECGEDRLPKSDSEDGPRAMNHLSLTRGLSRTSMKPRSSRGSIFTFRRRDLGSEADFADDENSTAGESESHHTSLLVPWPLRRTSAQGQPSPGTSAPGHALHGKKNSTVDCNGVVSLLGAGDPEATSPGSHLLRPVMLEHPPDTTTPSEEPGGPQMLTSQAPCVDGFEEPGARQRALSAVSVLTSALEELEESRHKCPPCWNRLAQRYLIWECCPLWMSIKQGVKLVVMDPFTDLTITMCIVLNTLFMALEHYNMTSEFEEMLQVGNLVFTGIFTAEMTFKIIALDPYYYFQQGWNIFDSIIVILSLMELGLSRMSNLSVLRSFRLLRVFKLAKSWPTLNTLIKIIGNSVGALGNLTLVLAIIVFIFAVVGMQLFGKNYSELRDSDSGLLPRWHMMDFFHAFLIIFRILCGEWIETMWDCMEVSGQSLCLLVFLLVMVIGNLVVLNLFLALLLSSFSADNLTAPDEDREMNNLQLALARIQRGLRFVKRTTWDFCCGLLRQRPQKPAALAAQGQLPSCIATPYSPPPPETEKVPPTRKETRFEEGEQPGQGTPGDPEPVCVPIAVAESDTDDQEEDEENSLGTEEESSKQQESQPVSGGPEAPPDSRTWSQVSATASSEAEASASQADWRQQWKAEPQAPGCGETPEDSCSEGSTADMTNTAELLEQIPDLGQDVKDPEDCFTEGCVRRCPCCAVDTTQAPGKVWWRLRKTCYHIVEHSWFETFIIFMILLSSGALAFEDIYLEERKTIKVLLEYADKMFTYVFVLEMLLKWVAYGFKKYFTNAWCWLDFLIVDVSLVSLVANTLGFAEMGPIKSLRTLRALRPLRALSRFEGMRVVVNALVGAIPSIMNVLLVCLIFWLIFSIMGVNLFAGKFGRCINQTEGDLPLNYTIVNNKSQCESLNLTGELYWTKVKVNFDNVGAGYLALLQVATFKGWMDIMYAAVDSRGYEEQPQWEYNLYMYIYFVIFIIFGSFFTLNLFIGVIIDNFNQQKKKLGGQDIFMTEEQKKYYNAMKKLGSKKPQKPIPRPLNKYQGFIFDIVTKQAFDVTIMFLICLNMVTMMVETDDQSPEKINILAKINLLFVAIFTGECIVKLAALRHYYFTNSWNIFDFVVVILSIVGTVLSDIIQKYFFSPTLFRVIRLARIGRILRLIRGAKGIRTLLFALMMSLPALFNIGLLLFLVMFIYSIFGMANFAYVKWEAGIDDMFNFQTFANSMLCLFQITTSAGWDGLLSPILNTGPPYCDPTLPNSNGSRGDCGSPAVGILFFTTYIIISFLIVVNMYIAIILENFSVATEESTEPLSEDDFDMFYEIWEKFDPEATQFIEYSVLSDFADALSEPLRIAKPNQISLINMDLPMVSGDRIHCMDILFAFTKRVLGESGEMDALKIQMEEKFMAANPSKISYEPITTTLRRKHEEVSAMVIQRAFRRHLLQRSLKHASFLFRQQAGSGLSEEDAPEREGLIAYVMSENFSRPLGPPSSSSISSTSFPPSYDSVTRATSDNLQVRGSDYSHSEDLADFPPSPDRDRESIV
Type: cell-based
Procedure: The late sodium current (Late INa) and peak sodium current (Peak INa) assays are performed on an automated electrophysiology platform, PatchXpress 7000A (MDS Analytical Technologies, Sunnyvale, Calif.), which uses the whole cell patch clamp technique to measure currents through the cell membrane of up to 16 cells at a time. The assay uses an HEK293 (human embryonic kidney) cell line heterologously expressing the wild-type human cardiac sodium channel, hNav1.5, purchased from Millipore (Billerica, Mass.). No beta subunits were coexpressed with the Na channel alpha subunit. Cells are maintained with standard tissue culture procedures and stable channel expression is maintained with 400 μg/ml Geneticin in the culture medium. […] Experiments are carried out at 24-27° C.
For both the Late INa and Peak INa assays, series resistance compensation is set to 50% and whole-cell compensation is performed automatically. […] Currents through open sodium channels are automatically recorded and stored in the DataXpress2 database (MDS Analytical Technologies, Sunnyvale, Calif.). Analysis is performed using DataXpress2 analysis software and data are compiled in Excel.
Compound stocks are routinely made in glass vials to 10 mM in dimethyl sulfoxide (DMSO). In some cases, when compounds are not soluble in DMSO, they are made in 100% ethanol. Stocks are sonicated as necessary. The extracellular solution for screening Late INa is composed of: 140 mM NaCl, 4 mM KCl, 1.8 mM CaCl2, 0.75 mM MgCl2, and 5 mM HEPES with pH adjusted to 7.4 using NaOH. The extracellular solution for screening Peak INa is composed of: 20 mM NaCl, 120 mM N-methyl-D glucamine, 4 mM KCl, 1.8 mM CaCl2, 0.75 mM MgCl2, and 5 mM HEPES with pH adjusted to 7.4 using HCl. The intracellular solution used to perfuse the inside of the cells for both the Late INa and Peak INa assays contains: 120 mM CsF, 20 mM CsCl, 5 mM EGTA, 5 mM HEPES and pH adjusted to 7.4 with CsOH. […] The 0Na extracellular solution used at the end of each experiment for the Late INa and Peak INa assays to measure baseline current contains: 140 mM N-methyl-D-glucamine; 4 mM KCl; 1.8 mM CaCl2; 0.75 mM MgCl2; 5 mM HEPES and pH was adjusted to 7.4 with HCl.
For the Late INa assay, sodium channels are activated every 10 seconds (0.1 Hz) by depolarizing the cell membrane to −20 mV for 250 milliseconds (ms) from a holding potential of −120 mV. In response to a −20 mV voltage step, typical Nav1.5 sodium currents activate rapidly to a peak negative current and then inactivate nearly completely within […].
All compounds are tested to determine their activity in blocking the late sodium current. Late INa current is generated by adding 10 μM Tefluthrin (pyrethroid) to the extracellular solution while recording Na currents For some experiments, 50 nM ATX II (sea anemone toxin), another late INa activator, was used to generate the late component. […] After establishing the whole cell recording configuration, late INa activators are added to each well 4 times over a 16-17 minute period so that the late component of the Na current reaches a stable value. […] Measurements are made at the end of exposure to the third compound addition and values are normalized to the current level when all Na^+ is removed from the extracellular solution after two additions of 0Na-ECF. Results are reported as percent block of late INa

SMILES | inhibition at 1 µM [%]
CC(O)C(F)(F)c1nnc2ccc(-c3ccc(OC(F)(F)F)cc3)cn12 (stereo not shown) [BHN-165, 1,1-difluoro-1-{6-[4-(trifluoromethoxy)phenyl][1,2,4]triazolo[4,3-a]pyridin-3-yl}propan-2-ol] | 28.1
CC(C)(O)C#Cc1nnc2ccc(-c3ccc(OC(F)(F)F)cc3)cn12 [BHN-173, 2-methyl-4-{6-[4-(trifluoromethoxy)phenyl][1,2,4]triazolo[4,3-a]pyridin-3-yl}but-3-yn-2-ol] | 30.8
OC(COCC(F)(F)c1nnc2ccc(-c3ccc(OC(F)(F)F)cc3)cn12)COc1ccccc1Cl (stereo not shown) [BHN-267, 1-(2-chlorophenoxy)-3-(2,2-difluoro-2-{6-[4-(trifluoromethoxy)phenyl][1,2,4]triazolo[4,3-a]pyridin-3-yl}ethoxy)propan-2-ol] | 26.5
FC(F)(F)COc1ccc(-c2ccc3nnc(C(F)(F)OCc4cc(-c5ccccc5)on4)n3c2)cn1 [BHN-324, 3-{difluoro[(5-phenyl-1,2-oxazol-3-yl)methoxy]methyl}-6-[6-(2,2,2-trifluoroethoxy)pyridin-3-yl][1,2,4]triazolo[4,3-a]pyridine] | 46.3
CC(=O)Nc1cc(OC(F)(F)F)ccc1-c1ccc2nnc(-c3ccc(OC(F)(F)F)cc3)n2c1 [BHN-116, N-[5-(trifluoromethoxy)-2-{3-[4-(trifluoromethoxy)phenyl][1,2,4]triazolo[4,3-a]pyridin-6-yl}phenyl]acetamide] | 16.4
Fc1cc(-c2ccc3nnc(C(F)(F)F)n3n2)cc(F)c1Oc1ccccc1 [BHN-210, 6-(3,5-difluoro-4-phenoxyphenyl)-3-(trifluoromethyl)[1,2,4]triazolo[4,3-b]pyridazine] | 33.8
COc1ccc(N2CCN(CCOC(F)(F)c3nnc4ccc(-c5ccc(OC(F)(F)F)cc5)cn34)CC2)cc1 [BHN-264, 3-(difluoro{2-[4-(4-methoxyphenyl)piperazin-1-yl]ethoxy}methyl)-6-[4-(trifluoromethoxy)phenyl][1,2,4]triazolo[4,3-a]pyridine] | 54.3
FC(F)(F)Oc1ccc(-c2ccc3nnc(C(F)(F)OCc4ccccc4-n4cccn4)n3c2)cc1 [BHN-328, 3-(difluoro{[2-(1H-pyrazol-1-yl)benzyl]oxy}methyl)-6-[4-(trifluoromethoxy)phenyl][1,2,4]triazolo[4,3-a]pyridine] | 70.9
FC(F)(F)c1nnc2ccc(-c3ccc4ccccc4c3)cn12 [BHN-106, 6-(naphthalen-2-yl)-3-(trifluoromethyl)[1,2,4]triazolo[4,3-a]pyridine] | 38.2
c1ccc(Oc2ccc(-c3ccc4nnnn4c3)cc2)cc1 [BHN-97, 6-(4-phenoxyphenyl)tetrazolo[1,5-a]pyridine] | 73.2
CC(C)Oc1cc(OC(F)(F)F)ccc1-c1ccc2nnc(C(F)(F)F)n2c1 [BHN-223, 6-[2-(propan-2-yloxy)-4-(trifluoromethoxy)phenyl]-3-(trifluoromethyl)[1,2,4]triazolo[4,3-a]pyridine] | 54.5
N#Cc1ccc(C(F)(F)Oc2ccc(-c3ccc4nnc(C(F)(F)F)n4c3)cc2)cc1 [BHN-280, 4-(difluoro{4-[3-(trifluoromethyl)[1,2,4]triazolo[4,3-a]pyridin-6-yl]phenoxy}methyl)benzonitrile] | 63.7
FC(F)(F)c1ncc2ccc(-c3nc4ccccc4s3)cn12 [BHN-213, 2-[3-(trifluoromethyl)imidazo[1,5-a]pyridin-6-yl]-1,3-benzothiazole] | 24
FC(F)(F)c1nnc2ccc(-c3ccc(OCC4CC4)cc3)cn12 [BHN-151, 6-[4-(cyclopropylmethoxy)phenyl]-3-(trifluoromethyl)[1,2,4]triazolo[4,3-a]pyridine] | 43.1
COc1ncc(-c2cc(OC(F)(F)F)ccc2-c2ccc3nnc(C(F)(F)F)n3c2)cn1 [BHN-131, 6-[2-(2-methoxypyrimidin-5-yl)-4-(trifluoromethoxy)phenyl]-3-(trifluoromethyl)[1,2,4]triazolo[4,3-a]pyridine] | 18.5
Cc1cc(OC(F)(F)F)ccc1-c1ccc2nnc(C(F)(F)F)n2n1 [BHN-26, 6-[2-methyl-4-(trifluoromethoxy)phenyl]-3-(trifluoromethyl)[1,2,4]triazolo[4,3-b]pyridazine] | 64.4
FC(F)(F)c1nnc2ccc(-c3ccc(OC(F)(F)c4ccccc4)cc3)cn12 [BHN-272, 6-{4-[difluoro(phenyl)methoxy]phenyl}-3-(trifluoromethyl)[1,2,4]triazolo[4,3-a]pyridine] | 64.9
Fc1cc(-c2ccc3nnc(C(F)(F)F)n3c2)ccc1OC(F)(F)F [BHN-146, 6-[3-fluoro-4-(trifluoromethoxy)phenyl]-3-(trifluoromethyl)[1,2,4]triazolo[4,3-a]pyridine] | 58.2
CC1(C)Cc2cccc(COC(F)(F)c3nnc4ccc(-c5ccc(OC(F)(F)F)cc5)cn34)c2O1 [BHN-321, 3-{[(2,2-dimethyl-2,3-dihydro-1-benzofuran-7-yl)methoxy](difluoro)methyl}-6-[4-(trifluoromethoxy)phenyl][1,2,4]triazolo[4,3-a]pyridine] | 65.6
FC(F)(F)Oc1ccc(-c2ccc3nnc(COCc4ccccc4)n3c2)cc1 [BHN-127, 3-[(benzyloxy)methyl]-6-[4-(trifluoromethoxy)phenyl][1,2,4]triazolo[4,3-a]pyridine] | 93.2
COCC(F)(F)c1nnc2ccc(-c3ccc(OC(F)(F)F)cc3)cn12 [BHN-74, 3-(1,1-difluoro-2-methoxyethyl)-6-[4-(trifluoromethoxy)phenyl][1,2,4]triazolo[4,3-a]pyridine] | 46.9
COC(C)(C)c1ccc(-c2ccc3nnc(C(F)(F)F)n3c2)cc1 [BHN-220, 6-[4-(2-methoxypropan-2-yl)phenyl]-3-(trifluoromethyl)[1,2,4]triazolo[4,3-a]pyridine] | 58.5
CC(C)(C#N)c1ccc(-c2ccc3nnc(C(F)(F)F)n3c2)cc1 [BHN-66, 2-methyl-2-{4-[3-(trifluoromethyl)[1,2,4]triazolo[4,3-a]pyridin-6-yl]phenyl}propanenitrile] | 33.2

Same assay, conditions: compound at 10 μM; HEK293 cells expressing hNav1.5; late INa generated with 10 μM Tefluthrin (or 50 nM ATX II); read-out: LateINa_10 uM (percent block of late INa)

SMILES | inhibition at 10 µM [%]
CCNc1nnc2ccc(-c3ccc(Oc4ccccc4)cc3)cn12 [BHN-334, N-ethyl-6-(4-phenoxyphenyl)[1,2,4]triazolo[4,3-a]pyridin-3-amine] | 40.6
Cc1cc(OC(F)(F)F)ccc1-c1ccc2nnc(C(F)(F)F)n2n1 [BHN-26, 6-[2-methyl-4-(trifluoromethoxy)phenyl]-3-(trifluoromethyl)[1,2,4]triazolo[4,3-b]pyridazine] | 75.3
FC(F)(F)c1nnc2ccc(-c3ccc(Oc4cnccn4)cc3)cn12 [BHN-94, 6-[4-(pyrazin-2-yloxy)phenyl]-3-(trifluoromethyl)[1,2,4]triazolo[4,3-a]pyridine] | 27.5
FC(F)(F)Oc1ccc(-c2ccc3nncn3n2)cc1 [BHN-25, 6-[4-(trifluoromethoxy)phenyl][1,2,4]triazolo[4,3-b]pyridazine] | 39
COCC(F)(F)c1nnc2ccc(-c3ccc(OC(F)(F)F)cc3)cn12 [BHN-74, 3-(1,1-difluoro-2-methoxyethyl)-6-[4-(trifluoromethoxy)phenyl][1,2,4]triazolo[4,3-a]pyridine] | 67
FC(F)(F)c1nnc2cnc(-c3ccc(Oc4ccccc4)cc3)cn12 [BHN-16, 6-(4-phenoxyphenyl)-3-(trifluoromethyl)[1,2,4]triazolo[4,3-a]pyrazine] | 54.3
FC(F)(F)c1nnc2ccc(-c3cnc(C4CC4)nc3)cn12 [BHN-89, 6-(2-cyclopropylpyrimidin-5-yl)-3-(trifluoromethyl)[1,2,4]triazolo[4,3-a]pyridine] | 20.5
CC(C)(C#N)c1ccc(-c2ccc3nnc(C(F)(F)F)n3c2)cc1 [BHN-66, 2-methyl-2-{4-[3-(trifluoromethyl)[1,2,4]triazolo[4,3-a]pyridin-6-yl]phenyl}propanenitrile] | 70.7
